Experimental data as given in paper PMC4129108, “The natural triterpene 3β,6β,16β-trihydroxy-lup-20(29)-ene obtained from the flowers of Combretum leprosum induces apoptosis in MCF-7 breast cancer cells” (BMC Complementary and Alternative Medicine, 2014).
Values after ≈ are worked out from the molar mass of the structure shown. “Also recorded” adds a separate entry of the source.

How the values were obtained:
[1] = system: S. cerevisiae EG133 (sod1Δsod2Δ); test: Yeast survival assay, EG133 (sod1Δsod2Δ); assay type: cell-based, Saccharomyces cerevisiae; conditions: for survival (percentage in relation to negative control): STAT cells, 1 h in PBS 30°C
Protocol: (§1) Media, solutions and buffers were prepared according to Burke et al.. YPD medium (0.5% yeast extract, 2% peptone, 2% glucose) was used for routine growth. Synthetic medium SC (0.67% yeast nitrogen base, 0.1% ammonium sulfate, 2% glucose) supplemented with the appropriate amino acids and bases ([…]) was used for the detection of mutations.
(§2) Stationary phase (STAT) cultures were obtained by inoculation of a single colony into liquid YPD. We chose to work in the stationary phase of growth because this resembles most cells of multicellular organisms in important aspects: (i) most energy comes from mitochondrial respiration; (ii) the cells have left the active cell cycle and have entered the Go phase; and (iii) damage accumulates over time.
(§3) STAT cells (1 × 10^8 cells/mL) were exposed to TTHL (10–500 μg/mL) and incubated under growth conditions for 1 h in PBS at 30°C. Cells were then washed and treated with H2O2 (5 mM) in PBS for another hour. Suitable aliquots were plated in triplicate on solid YPD (2–3 days, 30°C) and colony-forming units were counted. Sensitivity was expressed as a percentage of survival in relation to the negative control (solvent).

[2] = system: HCT116 cell (colorectal carcinoma); test: XTT cell viability assay, HCT116; assay type: cell-based, human; conditions: for IC50: Homo sapiens, HCT-116, XTT
Protocol: (§4) The human cell lines MCF-7 (breast adenocarcinoma), HepG2 (hepatoma), T24 (bladder cancer), CACO-2 (colorectal adenocarcinoma) and MRC5 (lung normal fibroblast) were obtained from the Rio de Janeiro Cell Bank (Rio de Janeiro, RJ, Brazil). The HCT116 cell (colorectal carcinoma), and HT29 cell (colorectal adenocarcinoma) were kindly provided by Dr. Annette K. Larsen (Institut National de la Santé et de la Recherche Médicale - INSERM, Paris, França). All cell lines except MCF-7 were grown in DMEM supplemented with 10% or 20% (for CACO-2) FBS, 100 units.mL^-1 penicillin and 100 μg.mL^-1 streptomycin at 37°C in a humidified atmosphere of 5% CO2. MCF-7 cells were maintained in RPMI-1640 supplemented with 20% FBS at the same conditions described above.
(§5) The cytotoxic potential of the TTHL was evaluated by the XTT assay in human tumor cell lines as well as in MRC5 normal fibroblasts. Cells (1 × 10^4 cells) were seeded on 96-well plates in growth medium and incubated overnight. Afterwards, TTHL (0.5, 1.0, 2.5, 5.0, and 10 μg/mL) was added to each well and incubated for 24, 48, 72, and 120 h. Mitoxantrone, a cytostatic anthracenedione that intercalates in DNA and increases the incidence of double-strand breaks by stabilizing the cleavable complex of topoisomerase II and DNA, was used as positive control. At the end of each treatment, cell viability was assessed according to the manufacturer’s instructions. Briefly, after discarding the medium, 1 mL of XTT labeling mixture was added to the cells and incubated for 2 h at 37°C. Absorbance was measured with a SpectraMax reader (Bio-Rad, USA) at a test wavelength of 492 nm (A492) and a reference wavelength of 690 nm (A690). The final result corresponds to A492-A690. The absorbance of negative control cells was set as 100% viability, and the values for treated cells were calculated as a percentage of the control.
(§6) The IC20, IC50, and IC80 values and their 95% confidence intervals (CI 95%) were obtained by nonlinear regression using GraphPad Prism v5 program (Intuitive Software for Science, San Diego, CA, USA). Selective index (SI) was calculated by IC50 in MRC5 cells/IC50 in tumoral cells. All experiments were independently repeated at least three times, with triplicate samples for each treatment. Results are expressed as means ± standard deviation (SD). Data were analyzed by one-way analysis of variance (ANOVA), and means were compared using Tukey test, with P ≤ 0.05 considered as statistically significant.

[3] = system: HepG2 (hepatoma); test: XTT cell viability assay, HepG2; assay type: cell-based, human; conditions: for IC50: Homo sapiens, XTT
Protocol: as §4, §5, §6

[4] = system: S. cerevisiae EG118 (sod1Δ); test: Yeast survival assay, EG118 (sod1Δ); assay type: cell-based, Saccharomyces cerevisiae; conditions: for survival (percentage in relation to negative control): STAT cells, 1 h in PBS 30°C
Protocol: as §1, §2, §3

[5] = system: S. cerevisiae haploid strain XV185-14c; test: Point and frameshift mutations and survival in XV185-14c haploid yeast; assay type: cell-based, Saccharomyces cerevisiae; conditions: for HIS1/10^7 survivors (locus-specific revertants) / HOM3/10^8 survivors (locus-specific revertants, frameshift) / LYS1/10^8 survivors (locus non-specific revertants) / Survival (%): XV185-14c, STAT cells treated in PBS; for Survival (%): 1 h 30°C
Protocol: as §1, §2
Cell cultures were grown as described above, exposed to TTHL in concentrations ranging from 10 to 500 μg/mL, and then incubated in PBS for 1 h at 30°C. Two alleles, his1-798 and lys1-1, were used to detect point mutagenesis. The suppressible ochre nonsense mutant allele lys1-1 can be reverted either by locus-specific sequence alteration (true reversion) or by a forward mutation in a suppressor gene. […] Survival was determined on SC medium (3–5 days, 30°C) and mutation induction (HIS, LYS or HOM revertants) on media lacking the appropriate amino acid (7–10 days, 30°C). Induction of reversion of point mutation to his1-798, ochre allele lys1-1, and frameshift mutation values were scored per number of surviving cells.

[6] = system: S. cerevisiae EG110 (sod2Δ); test: Yeast survival assay, EG110 (sod2Δ); assay type: cell-based, Saccharomyces cerevisiae; conditions: for survival (percentage in relation to negative control): STAT cells, 1 h in PBS 30°C
Protocol: as §1, §2, §3

[7] = deficient in superoxide dismutase

`C=C(C)[C@@H]1CC[C@@]2(C)[C@H]1[C@H]1CC[C@@H]3[C@@]4(C)CC[C@H](O)C(C)(C)[C@@H]4[C@H](O)C[C@@]3(C)[C@]1(C)C[C@@H]2O` [TTHL, 3β,6β,16β-trihydroxy-lup-20(29)-ene] was tested, and the “survival (percentage in relation to negative control)” value ([1]; TTHL 10 μg/mL) was 79.35 ± 2.19 %, the “survival (percentage in relation to negative control)” value ([1]; TTHL 50 μg/mL) was 67.85 ± 10.54 % and the “survival (percentage in relation to negative control)” value ([1]; TTHL 100 μg/mL) was 58.15 ± 3.89 %. The “survival (percentage in relation to negative control)” value ([1]; TTHL 500 μg/mL) was 41.45 ± 4.03 %, the “sensitivity of the strain to TTHL (in words)” value (shortened to “sensitivity of the strain”) [1, 7] was “hypersensitive” and the IC50 ([2]; HCT116, 24 h treatment) was 7.05 ± 0.21 µg/mL (≈ 15.4 µM). It also gave an IC50 ([2]; HCT116, 48 h treatment) of 5.87 ± 0.04 µg/mL (≈ 12.8 µM), an IC50 ([2]; HCT116, 72 h treatment) of 5.2 ± 0.28 µg/mL (≈ 11.3 µM) and an IC50 ([2]; HCT116, 120 h treatment) of 4.5 ± 0.29 µg/mL (≈ 9.81 µM). For the same compound, the “Selectivity index (SI)” value ([2]; IC50 in MRC5 cells/IC50 in HCT116, 24 h) was 1 X, the “Selectivity index (SI)” value ([2]; IC50 in MRC5 cells/IC50 in HCT116, 48 h) was 1 X and the “Selectivity index (SI)” value ([2]; IC50 in MRC5 cells/IC50 in HCT116, 72 h) was 1 X. For the same compound, the “Selectivity index (SI)” value ([2]; IC50 in MRC5 cells/IC50 in HCT116, 120 h) was 1.5 X, the IC50 ([3]; HepG2, 24 h treatment) was 6.5 ± 0.43 µg/mL (≈ 14.2 µM) and the IC50 ([3]; HepG2, 48 h treatment) was 6.1 ± 0.28 µg/mL (≈ 13.3 µM). The IC50 ([3]; HepG2, 72 h treatment) was 5.45 ± 0.35 µg/mL (≈ 11.9 µM), the IC50 ([3]; HepG2, 120 h treatment) was 0.88 ± 0.13 µg/mL (≈ 1.92 µM) and the “Selectivity index (SI)” value ([3]; IC50 in MRC5 cells/IC50 in HepG2, 24 h) was 1.3 X. The “Selectivity index (SI)” value ([3]; IC50 in MRC5 cells/IC50 in HepG2, 48 h) was 1 X, the “Selectivity index (SI)” value ([3]; IC50 in MRC5 cells/IC50 in HepG2, 72 h) was 1 X and the “Selectivity index (SI)” value ([3]; IC50 in MRC5 cells/IC50 in HepG2, 120 h) was 8 X. The “survival (percentage in relation to negative control)” value ([4]; TTHL 10 μg/mL) was 92.60 ± 2.83%, the “survival (percentage in relation to negative control)” value ([4]; TTHL 50 μg/mL) was 89.30 ± 0.85 % and the “survival (percentage in relation to negative control)” value ([4]; TTHL 100 μg/mL) was 75.65 ± 4.60 %. The “survival (percentage in relation to negative control)” value ([4]; TTHL 500 μg/mL) was 69.30 ± 3.68 %, the “sensitivity of the strain” value [4, 7] was “hypersensitive” and the “mutagenicity in yeast strain XV185-14c (in words)” value ([5]; 10 to 500 μg/mL, his1-798, lys1-1, hom3-10 loci) was “induced mutagenicity; also recorded: only able to induce mutagenesis on the assessed loci at the highest concentration”. For the same compound, the “HIS1/10^7 survivors (locus-specific revertants)” value (“HIS1/10^7 survivors” for short) ([5]; 10 μg/mL) was 10.77 ± 4.40 /10^7 survivors, the “HOM3/10^8 survivors (locus-specific revertants, frameshift)” value ([5]; 10 μg/mL) was 6.11 ± 1.58 /10^8 survivors and the “LYS1/10^8 survivors (locus non-specific revertants)” value ([5]; 10 μg/mL) was 4.78 ± 0.63 /10^8 survivors. For the same compound, the “Survival (%)” value ([5]; 10 μg/mL) was 84.90%, the “HIS1/10^7 survivors” value ([5]; 50 μg/mL) was 13.33 ± 1.10 /10^7 survivors and the “HOM3/10^8 survivors (locus-specific revertants, frameshift)” value ([5]; 50 μg/mL) was 8.80 ± 0.14 /10^8 survivors. The “LYS1/10^8 survivors (locus non-specific revertants)” value ([5]; 50 μg/mL) was 5.68 ± 2.22 /10^8 survivors, the “Survival (%)” value ([5]; 50 μg/mL) was 72.83% and the “HIS1/10^7 survivors” value ([5]; 100 μg/mL) was 20.83 ± 1.80 /10^7 survivors. For the same compound, the “HOM3/10^8 survivors (locus-specific revertants, frameshift)” value ([5]; 100 μg/mL) was 8.49 ± 2.12 /10^8 survivors, the “LYS1/10^8 survivors (locus non-specific revertants)” value ([5]; 100 μg/mL) was 9.72 ± 0.55 /10^8 survivors and the “Survival (%)” value ([5]; 100 μg/mL) was 65.00%. The “HIS1/10^7 survivors” value ([5]; 500 μg/mL) was 30.10 ± 0.21 /10^7 survivors, the “HOM3/10^8 survivors (locus-specific revertants, frameshift)” value ([5]; 500 μg/mL) was 11.15 ± 0.92 /10^8 survivors and the “LYS1/10^8 survivors (locus non-specific revertants)” value ([5]; 500 μg/mL) was 14.40 ± 3.40 /10^8 survivors. For the same compound, the “Survival (%)” value ([5]; 500 μg/mL) was 69.00%, the “survival (percentage in relation to negative control)” value ([6]; TTHL 10 μg/mL) was 83.20 ± 3.68 % and the “survival (percentage in relation to negative control)” value ([6]; TTHL 50 μg/mL) was 72.90 ± 7.07 %. The “survival (percentage in relation to negative control)” value ([6]; TTHL 100 μg/mL) was 62.25 ± 3.32 %, the “survival (percentage in relation to negative control)” value ([6]; TTHL 500 μg/mL) was 56.65 ± 1.06 % and the “sensitivity of the strain” value [6, 7] was “hypersensitive”.
